In general, IC50 refers to the midpoint of a concentration-inhibition curve. High values mean a need for much substance, low ones inhibition by little substance.

IC50 and Activity data for 17 compounds are collected here from ChEMBL document CHEMBL1275333, “Identification of non-peptide malignant brain tumor (MBT) repeat antagonists by virtual screening of commercially available compounds” (J Med Chem, 2010).

For assay [1], the target named is T1, Lethal(3)malignant brain tumor-like protein 1 (Homo sapiens, UniProt Q9Y468).
T1 sequence (Q9Y468 whole entry): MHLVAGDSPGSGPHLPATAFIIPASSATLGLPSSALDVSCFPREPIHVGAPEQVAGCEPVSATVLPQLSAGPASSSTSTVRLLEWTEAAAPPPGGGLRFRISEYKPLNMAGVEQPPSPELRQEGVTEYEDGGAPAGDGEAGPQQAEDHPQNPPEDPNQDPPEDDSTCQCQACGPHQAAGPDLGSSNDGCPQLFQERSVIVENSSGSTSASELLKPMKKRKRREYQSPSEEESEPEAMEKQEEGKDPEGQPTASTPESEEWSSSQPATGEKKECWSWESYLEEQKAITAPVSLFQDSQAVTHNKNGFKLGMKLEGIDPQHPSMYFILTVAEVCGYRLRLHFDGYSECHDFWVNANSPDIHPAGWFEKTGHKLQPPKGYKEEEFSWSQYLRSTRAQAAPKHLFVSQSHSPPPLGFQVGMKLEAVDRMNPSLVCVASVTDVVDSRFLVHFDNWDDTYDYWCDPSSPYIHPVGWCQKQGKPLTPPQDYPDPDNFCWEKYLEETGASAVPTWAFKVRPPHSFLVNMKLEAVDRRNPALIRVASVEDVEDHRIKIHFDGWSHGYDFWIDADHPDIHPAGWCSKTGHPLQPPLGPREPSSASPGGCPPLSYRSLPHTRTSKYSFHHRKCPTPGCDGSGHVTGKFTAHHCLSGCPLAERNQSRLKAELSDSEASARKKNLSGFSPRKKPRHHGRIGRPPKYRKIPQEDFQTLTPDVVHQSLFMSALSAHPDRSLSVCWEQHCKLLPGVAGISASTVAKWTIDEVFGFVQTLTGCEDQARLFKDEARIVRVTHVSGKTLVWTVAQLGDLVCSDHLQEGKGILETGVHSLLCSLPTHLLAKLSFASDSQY
Description: Inhibition of L3MBTL1 by alpha-screening.

Assay [2] deals with MBT domain-containing protein 1 (Homo sapiens, UniProt Q05BQ5). Description: Inhibition of MBTD1 by alpha-screening.
Sequence of MBT domain-containing protein 1 (Q05BQ5 whole entry, the tested form may be a part): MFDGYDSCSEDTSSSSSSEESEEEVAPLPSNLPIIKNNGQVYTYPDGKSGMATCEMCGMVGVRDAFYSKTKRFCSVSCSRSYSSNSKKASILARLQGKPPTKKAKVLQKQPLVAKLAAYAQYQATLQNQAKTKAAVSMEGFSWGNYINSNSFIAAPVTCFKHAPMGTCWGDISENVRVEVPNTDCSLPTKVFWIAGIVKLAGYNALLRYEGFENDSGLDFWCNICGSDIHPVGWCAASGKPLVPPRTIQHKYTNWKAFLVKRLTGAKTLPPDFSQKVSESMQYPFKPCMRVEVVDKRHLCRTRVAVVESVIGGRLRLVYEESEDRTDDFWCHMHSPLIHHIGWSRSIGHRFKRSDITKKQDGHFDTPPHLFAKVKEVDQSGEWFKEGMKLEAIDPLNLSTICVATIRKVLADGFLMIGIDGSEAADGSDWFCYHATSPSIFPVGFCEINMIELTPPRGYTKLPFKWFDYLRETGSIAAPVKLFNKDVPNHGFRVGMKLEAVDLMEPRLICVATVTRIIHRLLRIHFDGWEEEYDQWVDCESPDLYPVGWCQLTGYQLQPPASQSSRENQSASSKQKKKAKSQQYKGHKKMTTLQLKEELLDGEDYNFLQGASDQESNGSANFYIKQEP
For assay [3], the target named is T2, Lethal(3)malignant brain tumor-like protein 4 (Homo sapiens, UniProt Q8NA19).
T2 sequence (Q8NA19 whole entry): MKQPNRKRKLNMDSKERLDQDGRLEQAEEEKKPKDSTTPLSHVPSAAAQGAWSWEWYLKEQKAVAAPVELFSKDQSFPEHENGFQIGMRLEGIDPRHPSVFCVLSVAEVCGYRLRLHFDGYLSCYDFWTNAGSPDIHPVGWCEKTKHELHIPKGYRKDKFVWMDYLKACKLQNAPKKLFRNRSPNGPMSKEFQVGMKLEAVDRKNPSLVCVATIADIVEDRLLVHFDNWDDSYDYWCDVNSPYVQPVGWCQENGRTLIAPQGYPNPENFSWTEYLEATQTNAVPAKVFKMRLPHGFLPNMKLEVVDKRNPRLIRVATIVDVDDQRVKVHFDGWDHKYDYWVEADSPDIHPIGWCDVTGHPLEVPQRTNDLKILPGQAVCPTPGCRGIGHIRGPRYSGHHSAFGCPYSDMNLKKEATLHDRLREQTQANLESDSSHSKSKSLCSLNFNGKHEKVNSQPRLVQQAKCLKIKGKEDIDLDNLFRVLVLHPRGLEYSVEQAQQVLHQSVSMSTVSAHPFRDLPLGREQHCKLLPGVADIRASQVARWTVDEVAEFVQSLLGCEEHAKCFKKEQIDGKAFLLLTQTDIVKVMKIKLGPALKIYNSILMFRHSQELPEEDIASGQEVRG
Briefly: Inhibition of L3MBTL4 by alpha-screening.

Assay [4] has as its target T3, Lethal(3)malignant brain tumor-like protein 3 (Homo sapiens, UniProt Q96JM7).
T3 sequence (Q96JM7 whole entry): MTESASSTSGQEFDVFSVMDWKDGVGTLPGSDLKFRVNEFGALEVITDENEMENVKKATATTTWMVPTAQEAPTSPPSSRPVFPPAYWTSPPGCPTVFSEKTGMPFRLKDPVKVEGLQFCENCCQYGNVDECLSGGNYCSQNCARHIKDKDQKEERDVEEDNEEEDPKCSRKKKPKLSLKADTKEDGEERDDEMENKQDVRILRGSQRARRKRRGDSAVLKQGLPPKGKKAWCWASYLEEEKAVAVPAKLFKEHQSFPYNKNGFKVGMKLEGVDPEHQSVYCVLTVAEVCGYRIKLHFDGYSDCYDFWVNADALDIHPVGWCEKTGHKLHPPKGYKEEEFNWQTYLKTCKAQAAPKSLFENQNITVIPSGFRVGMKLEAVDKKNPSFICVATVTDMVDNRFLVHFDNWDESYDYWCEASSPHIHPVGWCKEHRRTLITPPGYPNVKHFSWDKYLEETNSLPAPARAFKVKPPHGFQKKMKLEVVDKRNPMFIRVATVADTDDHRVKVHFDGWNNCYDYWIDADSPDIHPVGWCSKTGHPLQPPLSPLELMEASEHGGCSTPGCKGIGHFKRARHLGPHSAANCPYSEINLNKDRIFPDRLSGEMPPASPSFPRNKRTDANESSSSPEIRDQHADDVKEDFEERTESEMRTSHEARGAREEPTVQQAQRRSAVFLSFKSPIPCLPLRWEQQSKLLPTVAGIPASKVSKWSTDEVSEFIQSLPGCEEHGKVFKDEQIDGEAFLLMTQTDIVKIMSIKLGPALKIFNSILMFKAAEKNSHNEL
Description: Inhibition of L3MBTL3 by alpha-screening.

The nature of assay [5]: AlphaScreen counterscreen signal interference at 100 uM. A general note: Bead proximity is the source of the signal in Alpha formats.

In the case of `CNCCCCOc1ccc(Cc2ccccc2)cc1`, the half-inhibitory concentration (IC50) is 91 µM in assay [1], greater than 100 µM in assay [2], greater than 100 µM in assay [3] and greater than 100 µM in assay [4]. In addition, in assay [5], the Activity worked out at 8%.
With `CN(C)CCC(=O)c1cc2c(cc1Br)OCCCO2`, the half-inhibitory concentration (IC50) in assay [1] was greater than 100 µM; in assay [2], greater than 100 µM; in assay [3], 12 µM; in assay [4] it was greater than 100 µM. Moreover, the Activity in assay [5] is 35%.
`CN(C)CCC(c1ccc(Cl)cc1)c1ccccn1` (stereo unspecified) [CHLORPHENIRAMINE] showed a 50% inhibitory concentration (IC50) in assay [2] of 34 µM.
For `CCN(CC)CCCNS(=O)(=O)c1ccc(F)c(Cl)c1`, the IC50 in assay [1], in assay [2] and in assay [3] was greater than 100 µM each time. For the same compound, the Activity in assay [5] was 8%.
`CNCC1CCN(CCc2ccc(Cl)cc2)CC1`: the half-maximal inhibitory concentration (IC50) in assay [1] was 69 µM; in assay [2] it was greater than 100 µM; in assay [3], greater than 100 µM.
For `CNCCCCc1ccccc1`, the half-inhibitory concentration (IC50) is 68 µM in assay [1], greater than 100 µM in assay [2], greater than 100 µM in assay [3] and greater than 100 µM in assay [4]. In addition, the Activity in assay [5] stood at 5%.
`CCN(CC)CC#CCOC(=O)C(O)(c1ccccc1)C1CCCCC1` (stereo unspecified) [OXYBUTYNIN]: the IC50 in assay [1], in assay [2] and in assay [3] was greater than 100 µM throughout.
Turning to `Cc1ncc(CCCCN(C)C)c2c1[nH]c1ccccc12`, the half-inhibitory concentration (IC50) in assay [1] was 21 µM; in assay [2] it was 73 µM; in assay [3], greater than 100 µM; in assay [4], 5.7 µM. The Activity in assay [5] was 15%.
`CN(C)CCCNC(=O)C1(O)c2cc(Br)ccc2NC(=O)N1c1ccc(Cl)cc1` (stereo unspecified): the IC50 in assay [1] is 52 µM; in assay [2] it was 37 µM; in assay [3] it was greater than 100 µM. Besides, in assay [5], the Activity amounted to 3%.
For the compound `Cc1ccc(S(=O)(=O)NCCCN2CCCC2)cc1`, the IC50 in assay [1] was 17 µM; in assay [2], 59 µM; in assay [3], greater than 100 µM.
Regarding `CC(CCN(C)C)OC(=O)c1ccc(C(C)c2ccccc2)o1` (stereo unspecified), the IC50 in assay [1] was 84 µM; in assay [2] it was 66 µM; in assay [3], greater than 100 µM; in assay [4], 75 µM. In addition, the Activity in assay [5] amounted to 22%.
With `CNCCCC1Sc2ccccc2Oc2ccccc21` (stereo unspecified), the IC50 is 14 µM in assay [1], greater than 100 µM in assay [2] and greater than 100 µM in assay [3].
On to `CCc1cc(OCCCCNC)ccc1Cl`, for which the IC50 in assay [1] is 96 µM; in assay [2], greater than 100 µM; in assay [3], greater than 100 µM.
Regarding `CNCCCC(C#N)(c1ccccc1C)C(C)C` (stereo unspecified), the IC50 is 18 µM in assay [1], greater than 100 µM in assay [2], greater than 100 µM in assay [3] and greater than 100 µM in assay [4]. Besides, the Activity in assay [5] was determined as 3%.
Take `CCN(CC)CCCNS(=O)(=O)c1cc(OC)ccc1OC`: the 50% inhibitory concentration (IC50) in assay [1] was greater than 100 µM; in assay [2], greater than 100 µM; in assay [3] it was greater than 100 µM; in assay [4], 48 µM. The Activity in assay [5] is -6%.
Consider `CNCCCCOc1ccc(C)cc1OC`, for which the IC50 in assay [1] was greater than 100 µM; in assay [2], greater than 100 µM; in assay [3], 92 µM; in assay [4] it was 84 µM. In addition, the Activity in assay [5] was 30%.
With `CNCCC1OC(c2ccc(Cl)cc2)Cc2ccccc21` (stereo unspecified), the IC50 is greater than 100 µM in assay [2] and 78 µM in assay [3].
